{
  "source": "ChEMBL document CHEMBL6134890",
  "about": "“Terminally Symmetric β-Turn Peptides for Multidrug-Resistant Bacterial Infections” (J Med Chem, 2025)",
  "key": {"Cell membrane [1]": {"tested_on": "Cell membrane", "assay": "Disruption of cell membrane in multi-drug resistant Staphylococcus aureus assessed as increase in red fluorescence intensity of PI at 2 times MIC measured for 2 hrs by fluorescence confocal microscopic imaging based analysis", "type": "subcellular"}, "Staphylococcus aureus [2]": {"tested_on": "Staphylococcus aureus", "assay": "Bactericidal activity against multi-drug resistant Staphylococcus aureus assessed as eradication of bacterial growth at 2 times MIC measured after 6 hrs by time-kill kinetic assay relative to control", "type": "functional"}, "Staphylococcus aureus [3]": {"tested_on": "Staphylococcus aureus", "assay": "Antimicrobial activity against multi-drug resistant Staphylococcus aureus assessed as reduction in bacterial growth at 2 times MIC measured after 1 hrs in presence of chymotrypsin by microplate reader based analysis", "type": "functional, organism-based"}, "Staphylococcus aureus [4]": {"tested_on": "Staphylococcus aureus", "assay": "Antibiofilm activity in methicillin-resistant Staphylococcus aureus assessed as eradication of formed biofilm by measuring reduction in viable bacterial count measured after 12 hrs by confocal microscopy based analysis", "type": "functional, organism-based"}, "Escherichia coli [5]": {"tested_on": "Escherichia coli", "assay": "Antimicrobial activity against multi-drug resistant Escherichia coli assessed as fold increase in MIC in presence of FeCl3", "type": "functional"}, "Staphylococcus aureus [6]": {"tested_on": "Staphylococcus aureus", "assay": "Antibacterial activity against Staphylococcus aureus ATCC 25923 at sub-inhibitory concentration measured after 15 passages for 18 hrs", "type": "functional", "design": "scale not given: the % may be the effect or the level left"}, "Escherichia coli [7]": {"tested_on": "Escherichia coli", "assay": "Antimicrobial activity against multi-drug resistant Escherichia coli assessed as fold increase in MIC in presence of KCl", "type": "functional"}, "Escherichia coli [8]": {"tested_on": "Escherichia coli", "assay": "Antimicrobial activity against multi-drug resistant Escherichia coli assessed as reduction in bacterial growth by broth dilution method", "type": "functional"}, "Staphylococcus aureus [9]": {"tested_on": "Staphylococcus aureus", "assay": "Antibiofilm activity in methicillin-resistant Staphylococcus aureus assessed as eradication of formed biofilm at 1 to 4 times MIC measured after 12 hrs by confocal microscopy based analysis", "type": "functional, organism-based"}, "Escherichia coli [10]": {"tested_on": "Escherichia coli", "assay": "Antimicrobial activity against Escherichia coli ATCC 25922 assessed as reduction in bacterial growth by broth dilution method", "type": "functional"}, "[11]": {"tested_on": "Staphylococcus epidermidis", "assay": "Antimicrobial activity against multi-drug resistant Staphylococcus epidermidis assessed as reduction in bacterial growth by broth dilution method", "type": "functional"}, "Cell membrane [12]": {"tested_on": "Cell membrane", "assay": "Induction of cytoplasmic membrane depolarization in multi-drug resistant Escherichia coli at 1 to 4 times MIC measured within 1 min by DiSC3-5 fluorescent dye based analysis"}, "Staphylococcus aureus [13]": {"tested_on": "Staphylococcus aureus", "assay": "Bactericidal activity against multi-drug resistant Staphylococcus aureus assessed as eradication of bacterial growth at 2 times MIC by time-kill kinetic assay", "type": "functional, organism-based", "details": "time 120-720 min"}, "Staphylococcus aureus [14]": {"tested_on": "Staphylococcus aureus", "assay": "Antimicrobial activity against multi-drug resistant Staphylococcus aureus assessed as reduction in bacterial growth at 2 times MIC measured after 1 hrs in presence of trypsin by microplate reader based analysis", "type": "functional, organism-based"}, "[15]": {"assay": "Half life of the compound in 25% plasma", "type": "ADME, cell-free"}, "Enterococcus faecalis": {"tested_on": "Enterococcus faecalis", "assay": "Antimicrobial activity against multi-drug resistant Enterococcus faecalis assessed as reduction in bacterial growth by broth dilution method", "type": "functional"}, "Klebsiella pneumoniae": {"tested_on": "Klebsiella pneumoniae", "assay": "Antimicrobial activity against multi-drug resistant Klebsiella pneumoniae assessed as reduction in bacterial growth by broth dilution method", "type": "functional"}, "Staphylococcus aureus [16]": {"tested_on": "Staphylococcus aureus", "assay": "Antimicrobial activity against multi-drug resistant Staphylococcus aureus assessed as reduction in bacterial growth measured after 1 to 6 hrs in 25% plasma", "type": "functional, organism-based", "details": "time 1-6 hrs"}, "Escherichia coli [17]": {"tested_on": "Escherichia coli", "assay": "Antibiofilm activity against multi-drug resistant Escherichia coli at 0.5 times MIC measured after 24 hrs by crystal violet staining based analysis", "type": "functional, organism-based"}, "Cell membrane [18]": {"tested_on": "Cell membrane", "assay": "Disruption of cell membrane in multi-drug resistant Staphylococcus aureus assessed as appearance of ruptured cell surface at 2 times MIC measured for 120 mins by transmission electron microscopy analysis", "type": "subcellular"}, "Cell membrane [19]": {"tested_on": "Cell membrane", "assay": "Induction of outer membrane permeabilization in multi-drug resistant Escherichia coli assessed as NPN uptake at 1 to 4 times MIC measured within 1 min by fluorescence based analysis", "type": "subcellular"}, "[20]": {"assay": "Hemolytic activity in human Red blood cell assessed as hemolysis incubated for 1 hrs by microplate reader based analysis", "type": "toxicity", "details": "erythrocyte"}, "Escherichia coli [21]": {"tested_on": "Escherichia coli", "assay": "Bactericidal activity against multi-drug resistant Escherichia coli assessed as eradication of bacterial growth at 2 times MIC by time-kill kinetic assay", "type": "functional, organism-based", "details": "time 120-720 min"}, "Staphylococcus aureus [22]": {"tested_on": "Staphylococcus aureus", "assay": "Antibiofilm activity against multi-drug resistant Staphylococcus aureus measured after 24 hrs by crystal violet staining based analysis", "type": "functional, organism-based"}, "Cell membrane [23]": {"tested_on": "Cell membrane", "assay": "Disruption of cell membrane in multi-drug resistant Staphylococcus aureus assessed as appearance of wrinkled cell surface at 2 times MIC measured for 120 mins by transmission electron microscopy analysis", "type": "subcellular"}, "Cell membrane [24]": {"tested_on": "Cell membrane", "assay": "Disruption of cell membrane in multi-drug resistant Escherichia coli assessed as appearance of ruptured cell surface at 2 times MIC measured for 120 mins by transmission electron microscopy analysis", "type": "subcellular"}, "Escherichia coli [25]": {"tested_on": "Escherichia coli", "assay": "Antibiofilm activity against multi-drug resistant Escherichia coli measured after 24 hrs by crystal violet staining based analysis", "type": "functional, organism-based"}, "Cell membrane [26]": {"tested_on": "Cell membrane", "assay": "Disruption of cell membrane in multi-drug resistant Escherichia coli assessed as appearance of wrinkled cell surface at 2 times MIC measured for 120 mins by transmission electron microscopy analysis", "type": "subcellular"}, "Escherichia coli [27]": {"tested_on": "Escherichia coli", "assay": "Bactericidal activity against multi-drug resistant Escherichia coli assessed as eradication of bacterial growth at 2 times MIC measured after 6 hrs by time-kill kinetic assay relative to control", "type": "functional"}, "Cell membrane [28]": {"tested_on": "Cell membrane", "assay": "Disruption of cell membrane in multi-drug resistant Escherichia coli assessed as increase in red fluorescence intensity of PI at 2 times MIC measured for 2 hrs by fluorescence confocal microscopic imaging based analysis", "type": "subcellular"}, "Escherichia coli [29]": {"tested_on": "Escherichia coli", "assay": "Bactericidal activity against multi-drug resistant Escherichia coli at 1 times MIC preincubated with LPS for 1 hrs followed by bacterial addition and measured after 18 hrs by microplate reader based analysis", "type": "functional, organism-based", "details": "time 19.0 hrs"}, "Escherichia coli [30]": {"tested_on": "Escherichia coli", "assay": "Antibiofilm activity in […] assessed as eradication of formed biofilm by measuring reduction in viable bacterial count measured after 12 hrs by confocal microscopy based analysis", "type": "functional, organism-based"}, "Escherichia coli [31]": {"tested_on": "Escherichia coli", "assay": "Antibiofilm activity in […] assessed as eradication of formed biofilm at 1 to 4 times MIC measured after 12 hrs by confocal microscopy based analysis", "type": "functional, organism-based"}, "Escherichia coli [32]": {"tested_on": "Escherichia coli", "assay": "Antimicrobial activity against multi-drug resistant Escherichia coli assessed as reduction in bacterial growth at 2 times MIC measured after 1 hrs in presence of trypsin by microplate reader based analysis", "type": "functional, organism-based"}, "Escherichia coli [33]": {"tested_on": "Escherichia coli", "assay": "Antimicrobial activity against multi-drug resistant Escherichia coli assessed as reduction in bacterial growth at 2 times MIC measured after 1 hrs in presence of chymotrypsin by microplate reader based analysis", "type": "functional, organism-based"}, "Cell membrane [34]": {"tested_on": "Cell membrane", "assay": "Induction of cytoplasmic membrane depolarization in multi-drug resistant Staphylococcus aureus at 1 to 4 times MIC measured within 1 min by DiSC3-5 fluorescent dye based analysis"}, "Escherichia coli [35]": {"tested_on": "Escherichia coli", "assay": "Antimicrobial activity against multi-drug resistant Escherichia coli assessed as fold increase in MIC in presence of NaCl", "type": "functional"}, "Acinetobacter baumannii": {"tested_on": "Acinetobacter baumannii", "assay": "Antimicrobial activity against multi-drug resistant Acinetobacter baumannii assessed as reduction in bacterial growth by broth dilution method", "type": "functional"}, "Staphylococcus aureus [36]": {"tested_on": "Staphylococcus aureus", "assay": "Antimicrobial activity against multi-drug resistant Staphylococcus aureus assessed as reduction in bacterial growth by broth dilution method", "type": "functional"}, "Staphylococcus aureus [37]": {"tested_on": "Staphylococcus aureus", "assay": "Antimicrobial activity against Staphylococcus aureus ATCC 25923 assessed as reduction in bacterial growth by broth dilution method", "type": "functional"}},
  "note": "Active and inactive are the calls of the source. The calls are words filed in the database; no cut-off is given here.",
  "data": [
    {"smiles": "CC(C)C[C@H](NC(=O)[C@H](Cc1ccccc1)NC(=O)[C@@H]1CCCN1C(=O)[C@H](Cc1c[nH]c2ccccc12)NC(=O)[C@H](Cc1c[nH]c2ccccc12)NC(=O)[C@H](Cc1c[nH]c2ccccc12)NC(=O)[C@@H]1CCCN1C(=O)[C@H](Cc1ccccc1)NC(=O)[C@H](CCCNC(=N)N)NC(=O)[C@H](CCCNC(=N)N)NC(=O)[C@@H](N)C(C)C)C(=O)N[C@@H](CCCNC(=N)N)C(=O)N[C@@H](CCCNC(=N)N)C(=O)O", "values": [
      {"measurement": "Activity", "setting": "Cell membrane [1]", "result": "Active"},
      {"measurement": "Activity", "setting": "Staphylococcus aureus [2]", "result": 100, "unit": "%"},
      {"measurement": "Activity", "setting": "Staphylococcus aureus [3]", "result": "inactive"},
      {"measurement": "Activity", "setting": "Staphylococcus aureus [4]", "result": "Dose-dependent-effect"},
      {"measurement": "fold change (FC)", "setting": "Escherichia coli [5]", "result": 2},
      {"measurement": "Activity", "setting": "Staphylococcus aureus [6]", "result": 100, "unit": "%"},
      {"measurement": "fold change (FC)", "setting": "Escherichia coli [7]", "result": 2},
      {"measurement": "MIC", "setting": "Escherichia coli [8]", "result": 16, "unit": "µM"},
      {"measurement": "Activity", "setting": "Staphylococcus aureus [9]", "result": "Active"},
      {"measurement": "MIC", "setting": "Escherichia coli [10]", "result": 16, "unit": "µM"},
      {"measurement": "MIC", "setting": "[11]", "result": 4, "unit": "µM"},
      {"measurement": "Activity", "setting": "Cell membrane [12]", "result": "Active"},
      {"measurement": "Activity", "setting": "Staphylococcus aureus [13]", "result": "Time-dependent-effect"},
      {"measurement": "Activity", "setting": "Staphylococcus aureus [14]", "result": "inactive"},
      {"measurement": "half-life", "setting": "[15]", "result": 1.7, "unit": "h"},
      {"measurement": "MIC", "setting": "Enterococcus faecalis", "result": 4, "unit": "µM"},
      {"measurement": "MIC", "setting": "Klebsiella pneumoniae", "result": 256, "unit": "µM"},
      {"measurement": "Activity", "setting": "Staphylococcus aureus [16]", "result": "inactive"},
      {"measurement": "Activity", "setting": "Escherichia coli [17]", "result": "inactive"},
      {"measurement": "Activity", "setting": "Cell membrane [18]", "result": "Active"},
      {"measurement": "Activity", "setting": "Cell membrane [19]", "result": "Active"},
      {"measurement": "HC10", "setting": "[20]", "result": 33.13, "unit": "µM"},
      {"measurement": "Activity", "setting": "Escherichia coli [21]", "result": "Time-dependent-effect"},
      {"measurement": "Activity", "setting": "Staphylococcus aureus [22]", "result": "Dose-dependent-effect"},
      {"measurement": "Activity", "setting": "Cell membrane [23]", "result": "Active"},
      {"measurement": "Activity", "setting": "Cell membrane [24]", "result": "Active"},
      {"measurement": "Activity", "setting": "Escherichia coli [25]", "result": "Dose-dependent-effect"},
      {"measurement": "Activity", "setting": "Cell membrane [26]", "result": "Active"},
      {"measurement": "Activity", "setting": "Escherichia coli [27]", "result": 100, "unit": "%"},
      {"measurement": "Activity", "setting": "Cell membrane [28]", "result": "Active"},
      {"measurement": "Activity", "setting": "Escherichia coli [29]", "result": "inactive"},
      {"measurement": "Activity", "setting": "Escherichia coli [30]", "result": "Dose-dependent-effect"},
      {"measurement": "Activity", "setting": "Escherichia coli [31]", "result": "Active"},
      {"measurement": "Activity", "setting": "Escherichia coli [32]", "result": "inactive"},
      {"measurement": "Activity", "setting": "Escherichia coli [33]", "result": "inactive"},
      {"measurement": "Activity", "setting": "Cell membrane [34]", "result": "Active"},
      {"measurement": "fold change (FC)", "setting": "Escherichia coli [35]", "result": 2},
      {"measurement": "MIC", "setting": "Acinetobacter baumannii", "result": 32, "unit": "µM"},
      {"measurement": "MIC", "setting": "Staphylococcus aureus [36]", "result": 16, "unit": "µM"},
      {"measurement": "MIC", "setting": "Staphylococcus aureus [37]", "result": 8, "unit": "µM"}
    ]}
  ]
}
